From US6376175B1, “Methods of discovering chemicals capable of functioning as gene expression modulators” (OSI Pharmaceuticals, Inc., priority 1989, dated 2002)

B1: Interferon-gamma: proteinaceous positive regulator (protein, UniProt P01579 24-161, looked up)
Interferon gamma: QDPYVKEAENLKKYFNAGHSDVADNGTLFLGILKNWKEESDRKIMQSQIVSFYFKLFKNFKDDQSIQKSVETIKEDMNVKFFNSNKKKRDDFEKLTNYSVTDLNVQRKAIHELIQVMAELSPAAKTGKRKRSQMLFRG

Key:
G-CSF mRNA = assay: S1 nuclease protection, G-CSF mRNA in 5637 cells; assay type: cell-based, human; settings: 18 hours, 542 (10, 50, 250 microM), 1255 (20, 100, 500 microM), 1793 (0.25, 1.2, 6.25 microM), 1904 (20, 100 microM)
Method: (§1) S1 Nuclease protection assays were carried out as described in reference 94.
(§2) To further confirm, that compounds that had been identified in a luciferase expression assay using a G-CSF specific reporter cell line would be active in inducing transcription of the endogenous G-CSF gene, cells from the parental cell line 5637 used to construct the reporter cell line were incubated with cycloheximide (25 microg/ml), DMSO (0.5%, solvent control) and low, medium and high concentrations of the compounds 542 (10, 50, 250 microM),1255 (20, 100, 500 microM), 1793(0.25, 1.2, 6.25 microM) and 1904 (20, 100 microM) for 18 hours. RNA was extracted and the concentration of G-CSF, GM-CSF and gamma-actin mRNA was determined by the S1 protection method as described in Materials and Methods. The positions of G-CSF GM-CSF and gamma-actin specific protected fragments are indicated (G, GM, A) at the left side of the gel (FIG. 54).

GM-CSF mRNA = assay: S1 nuclease protection, GM-CSF mRNA in 5637 cells; assay type: cell-based, human; settings: 18 hours, low, medium and high concentrations
Method: as §1, §2

secreted G-CSF protein = assay: Two-antibody sandwich immunoassay of G-CSF secreted by 5637 bladder carcinoma cells; assay type: cell-based, human; settings: 5637 cells, 48 hours, serum-containing media; TNF-alpha 5 ng/ml; #542 50 uM; #1780 1 uM and 0.2 uM; FIG. 55
Method: Supernatants from 5637 bladder carcinoma cells incubated with chemicals registering as positives in the G-CSF promoter/luciferase High-Throughput assay were assayed for secreted G-CSF protein using the two-antibody sandwich immunoassay (96). The G-CSF Assay kit manufactured by Oncogene Science, Inc. was used and the manufacturer's instructions were followed.
The levels of G-CSF in the cell supernatants were determined by a sandwich-antibody assay as described in Materials and Methods (FIG. 55).

FRE cells = assay type: cell-based
Method: To determine cytotoxic concentrations of chemicals registering as positives in the High-Throughput luciferase assay the MTT cytotoxicity assay was employed (95). In this assay, a tetrazolium salt [3-(4,5-dimethylthiazol-2-yl)-2,5-diphenyl-tetrazolium bromide, MTT] is reduced to a colored formazan product by reducing enzymes present only in living metabolically active cells.
Cells were seeded into 96 well microtiterplates (20 000 cells/well) and cultured overnight. Compound #542 was added at various concentrations and the cells were incubated for 6 hours. Luciferase activity was determined as described in Materials and Methods. The MTT-colorimetric assay was carried out on identically treated samples of FRE cells. Induction of luciferase reporter signal (plain line) and on inhibition of respiration (dashed line) are plotted versus the concentrations of compound (FIG. 56). The ED50 for induction of luciferase activity differed from the ED50 for inhibition of respiration by a factor of almost 10, which might indicate that compound #542 exerts a specific effect on G- and GM-CSF transcription.

endogenous G-CSF mRNA = assay: Northern blot of endogenous G-CSF mRNA in 5637 cells; assay type: cell-based, human; settings: compared to solvent DMSO, normalized with beta-actin probe
Method: Total cellular RNA was isolated from the G21 cell clone or from untransfected 5637 cells following incubation for 6 hours with various transcriptionally modulating chemicals identified in the high-throughput screen. Cells were grown in serum free medium as described above. Total cellular RNA was isolated using the RNAZol method (CINNA/BIOTECX, Friendswood, Tex., Laboratories International, Inc.). Cells were resuspended and lysed with RNAZol solution (1.5 ml/9 cm petri dish) and the RNA was solubilized by passing the lysate a few times through a pipette. Chloroform was added to the homogenate (0.1 ml/1 ml), and samples were shaken for 15 seconds followed by a 5 minutes incubatoin on ice. After centrifuging for 10 minutes, the upper phase was collected and an equal volume of isopropanol was added. Samples were incubated for 45 minutes at −20 C, and the RNA was pelleted for 15 minutes at 12,000×g at 4 C. The RNA pellet was then washed with 70% ethanol and dried briefly under vacuum.
Total cellular RNA was isolated from 5637 cells following incubation with chemicals as described above and electrophoresed in a 1% Agarose-[…] Formaldehyde gel. The RNA was transferred to Duralon-UV nylon filters (Stratagene, La Jolla, Calif.) using the manufacturer's recommended protocol. The filters were prehybridized for 4 hours (prehybridizing solution=5X SSC, 50 mM sodium pyrophosphate, 10X Denhardt's solution, 10% dextran sulfate, 7% and 250 µg/ml denatured ssDNA) and then hybridized in the same solution for 16 hours at 65 C in the presence of G-CSF or Beta-Actin (Oncor, Gaithersburg, Md.) specific probes. The G-CSF probe was a 0.6 kb AflII o Xhol fragment which contained most of exon 5 of the human G-CSF gene. The B-actin probe was used as a control probe to normalize for the total amount of RNA. […] Bands were excised and counted in a liquid scintillation counter (LKB, Gaithersburg, Md.), and counts obtained with the G-CSF specific probe were normalized relative to the counts obtained with the B-Actin specific probe. […]

Row | Molecule | amount of G-CSF mRNA (S1 protection) (G-CSF mRNA) | amount of GM-CSF mRNA (S1 protection) (GM-CSF mRNA) | endogenous G-CSF mRNA production (Northern blot) (endogenous G-CSF mRNA) | other results
1 | Nc1nc(=O)n([C@H]2C[C@H](O)[C@@H](CO)O2)cc1Br [Chemical 542, 5-Bromo-2′-deoxycytidine] | increased mRNA production | increased the amount of GM-CSF mRNA | – | G-CSF secretion into media (secreted G-CSF protein): increased G-CSF secretion; factor between ED50 for induction of luciferase activity (G21) and ED50 for inhibition of respiration (FRE cells) (FRE cells): ~10
2 | O=c1[nH]c(=O)n([C@H]2C[C@H](O)[C@@H](CO)O2)cc1Br [Chemical 543, 5-Bromo-2′-deoxyuridine] | – | showed similar activity | – | –
3 | CN(C)c1ccc(C(=C2C=CC(=[N+](C)C)C=C2)c2ccc([N+](C)(C)C)cc2)cc1.[Cl-].[Cl-] [Chemical 670, Methyl Green] | – | – | stimulated production of G-CSF mRNA | –
4 | Clc1cc(Cl)cc(Br)c1 [Chemical 1255, 1-Bromo-3,5-dichlorobenzene] | increased mRNA production | – | stimulated production of G-CSF mRNA | –
5 | CN(C)c1ccc(C(=C2C=CC(=[N+](C)C)C=C2)c2ccc(N(C)C)cc2)cc1 [Chemical 1780, Crystal Violet] | – | – | – | G-CSF secretion into media (secreted G-CSF protein): increased G-CSF secretion
6 | CN(C)C(=S)SCC#N [Chemical 1793, Cyanomethyl-N,N-dimethyl dithiocarbomate] | increased mRNA production | increased the amount of GM-CSF mRNA | – | –
7 | Cl.Nc1c2ccccc2nc2ccccc12 [Chemical 1904, 9-Aminoacridine hydrochloride] | increased mRNA production | – | – | –
8 | B1 | – | – | increased G-CSF mRNA production | –
